Row | SMILES | melting point
1 | CCSc1c(O)ccc2[nH]ncc12 | 116 °C
2 | CN1c2ccccc2CC1COc1ccc(CC2SC(=O)NC2=O)cc1 (stereo unspecified) | 46.1 to 48.9 °C
3 | CCOC(=O)c1ccc(CBr)c(F)c1 | 42.5 to 44 °C
4 | O=CN(CCOc1ccc2ccccc2c1)c1ccc(C(=O)C(=O)O)cc1 | 155 to 156 °C
5 | c1ccc(CN2C[C@@H]3SCCC(c4ccccc4)(c4ccccc4)[C@@H]3C2)cc1 (racemic) | 130 °C
6 | CCc1ccc(COc2ccc(CC(NC(=O)c3cn4ccc(-c5ccc(Cl)cc5)cc4n3)C(=O)O)cc2)cc1 (stereo unspecified) | 245 °C
7 | CS(=O)(=O)N1CCC(CO)CC1 | 96 to 97 °C
8 | Nc1cccc(C#Cc2ccc(OC3CN4CCC3CC4)nn2)c1 (stereo unspecified) | 152 to 158 °C
9 | CCC(=C(c1ccc(O)cc1)c1ccc(OCCN(C)C)cc1)c1ccccc1 | 114 to 117 °C
10 | CC1Cc2cccc(-c3ccccc3)c2C1=O (stereo unspecified) | 81.5 to 83 °C
11 | CCCn1ncc2c(=O)[nH]c(-c3cc(C(=O)N4CCN(C)CC4)ccc3OCC)nc21 | 124 to 127 °C
12 | COC(=O)c1ccc(-c2cc(-c3ccc(Cl)cc3)no2)cc1 | 225 to 226 °C
13 | ClC(Cl)=Cc1sc(-c2ccccc2)cc1-c1ccccc1 | 111 to 113 °C
14 | CC(C)c1ccc(NCc2ccc(Br)cc2)cc1 | 30 °C
15 | CC(C)OC(=O)C1CCCN1S(=O)(=O)c1ccc(N2CCC(NCC(O)COc3cccc4[nH]c(=O)[nH]c34)CC2)cc1 (stereo unspecified) | 74 to 83 °C
16 | COc1cc(C(F)(F)F)nn1-c1ccc(NC(=O)c2ccncc2F)cc1 | 160 to 161 °C
17 | CC(C)Oc1cc(-n2c(=O)c(F)c(CF)n(C)c2=O)c(F)cc1Cl | 79 to 81 °C
18 | O=C1N(CC2CN(Cc3ccccc3)CCO2)c2ccccc2C12COc1cc3c(cc12)OCCO3 (stereo unspecified) | 88 to 100 °C
19 | CSC(=S)NN=Cc1ccccn1 | 171 to 173 °C

Row | SMILES | melting point
20 | CC1(C)SC(=O)C2OC=C(Br)C=C21 (stereo unspecified) | 63 to 72 °C
21 | Cc1nc(NCCc2ccccc2)sc1-c1ccnc(Nc2ccc(N3CCN(Cc4ccccc4)CC3)cc2)n1 | 191 to 192 °C
22 | COC(=O)c1ccc(OCCC[Si](C)(C)C)cc1O | 32 to 33 °C
23 | CNC(=O)c1cnn2c(C(=O)N3CCNCC3)c(Cc3cccc(F)c3C)c(-c3ccccc3)c2c1 | 208 to 210 °C
24 | CC(C)(C)OC(=O)N1[C@@H](Cc2cccc(C3CCC3)c2)C(=O)O[C@H](c2ccccc2)[C@@H]1c1ccccc1 | 145 to 147 °C
25 | O=C1CCC(N2C(=O)c3cccc(NC(=O)c4cccc(Cl)c4)c3C2=O)C(=O)N1 (stereo unspecified) | 257 to 259 °C
26 | O=C(OC(c1ccc(Cl)cc1Cl)C(Oc1ccc(Cl)cc1)n1cncn1)c1ccc(Cl)cc1Cl (stereo unspecified) | 132 to 135 °C
27 | CCCCCC(=O)N(CO)C1N=C(c2ccccc2)c2ccccc2N(C)C1=O (single isomer, unassigned; (+)) | 154 to 156 °C
28 | Cc1cc(C(F)(C(F)(F)F)C(F)(F)F)ccc1NC1OC(=O)c2cccc(Cl)c21 (stereo unspecified) | 229 to 231 °C
29 | Cc1cccc(OCC2=NCCN2C(=O)Oc2cccc(C)c2C)c1C | 126 to 127 °C
30 | Oc1ncc(Br)cc1C(F)(F)F | 160 to 162 °C
31 | Clc1ccc(C(=C2SCCCS2)C2CC2)cc1 | 91 to 95 °C
32 | O=C1C=C(Nc2cc(F)ccc2F)CCN1 | 252 to 255 °C
33 | COCCN1CCc2ccc(OC)c(Nc3ncc(Cl)c(Nc4ccc(N5CCOCC5)cc4OC)n3)c2CC1 | 68 to 80 °C
34 | Nc1scc(CN2CCN(c3ccccc3)CC2)c1C(=O)c1ccc(Cl)cc1 | 112 °C
35 | CCCc1nc2c(N)nc3cc(-c4ccccc4)ccc3c2n1CCCC(C)=NOC | 191 to 192 °C
36 | CNC(=O)N1C[C@@H](Oc2cccc(C(F)(F)F)c2)[C@@H]1C (relative stereo) | 89 to 91 °C
37 | COC(=O)C(OC)(OC)C(=O)Nc1cc(Cl)cc(Cl)c1 | 160 to 164 °C
38 | CC(C)OC(=O)C1C2CCC(C2)C1n1cc(F)c(=O)[nH]c1=O (stereo unspecified) | 135 to 136 °C

Row | SMILES | melting point
39 | O=[N+]([O-])c1ccc(C=Cc2ccc(Cl)c(Cl)c2)cc1O | 105 to 106 °C
40 | CCC(=O)c1ccc(-c2cc(NC(=O)OC(C)(C)C)ccc2C)c(C)c1 | 119 °C
41 | O=C(Nc1ccc(-n2nc(C(F)(F)F)cc2C(F)(F)F)cc1)c1cc(F)ccc1F | 168 to 169 °C
42 | COC(=O)c1cc2c(nc1C1=NC(C)(C(C)C)C(=O)N1)CCOC2 (stereo unspecified) | 208 to 220 °C
43 | CN(C)C1CCc2[nH]c3ccccc3c2C1 (stereo unspecified) | 138 °C
44 | N#CC1CCCCn2cccc21 (stereo unspecified) | 70 to 72 °C
45 | COC(=O)CCc1cc2cc(Cl)ccc2n1S(=O)(=O)c1ccc2c(c1)CCN2C(C)=O | 129 °C
46 | c1ccc(C(c2ccccc2)N2CCN(CCCOc3ccc4nncn4n3)CC2)cc1 | 132 to 134 °C
47 | CC(=O)SC/C(=C/c1ccccc1)C(=O)O | 57 °C
48 | N#CCSC(=O)c1ccc(C#N)cc1 | 132 to 134 °C
49 | Cc1onc(NS(=O)(=O)c2ccc([N+](=O)[O-])cc2)c1Br | 161 to 163 °C
50 | CC(C)(C)c1cc(C=C2CON(C(N)=O)C2=O)cc(C(C)(C)C)c1O | 178 to 181 °C
51 | O=C(O)Cn1cc(C(=O)O)c(=O)c2cccc(Br)c(=O)c21 | 173 to 175 °C
52 | Cc1cccc(I)c1C(=O)Nc1ccccc1[N+](=O)[O-] | 115 °C
53 | OCCC(c1ccccc1)C(O)(c1ccccc1)c1ccc(O)cc1 (stereo unspecified) | 192 to 194 °C
54 | CN(C)C1(c2ccccc2)CCC(CNCCc2c[nH]c3ccccc23)CC1 (stereo unspecified) | 78 to 83 °C
55 | CCc1nc(N)nc(N)c1-c1ccc(NCCc2ccccc2)c([N+](=O)[O-])c1 | 222 to 225 °C
56 | CCC(=O)Nc1ccc(C(=O)C=CN(C)C)cc1 | 161 to 163 °C

The remaining lines, values ahead:

Row | melting point | SMILES
57 | 85 to 86 °C | Cc1c(-c2ccccc2)oc2c(C(=O)OCCN3CCCCC3)cccc2c1=O
58 | 189 °C | O=Cc1ccc(C(=O)Nc2nccs2)cc1
59 | 158 to 161 °C | N#CCC(O)(c1ccc(Br)cc1)c1cccnc1 (stereo unspecified)
60 | 154 to 155 °C | COc1ccc(C(O)C(C)=CC(=O)O)c(C(C)C)c1OC (stereo unspecified)
61 | 172 to 173 °C | COc1ccc(C(CN(C)C(=O)/C=C/c2cccnc2)=NO)cc1OC
62 | 85 °C | CCOC(=O)C(C)Oc1ccc(Oc2ccc3cc(Br)ccc3n2)cc1 (stereo unspecified)
63 | 195 to 198 °C | Cc1cc2cc(NS(C)(=O)=O)cc(-c3cc(Cl)nc4ccccc34)c2n1CC(=O)O
64 | 118 to 120 °C | CCOC(=O)c1cccc(CN2CCN(c3nc(C)c(C(=O)NCc4ccccc4)s3)C2=O)c1
65 | 119 to 120 °C | CON=Cc1ccc2c(c1)ncn2-c1cccc(Br)c1
66 | 157 to 160 °C | O=C1CCCc2c(-c3ccncc3)sc(-c3ccncc3)c21
67 | 157 to 158 °C | O=C1CC(=O)CC(c2ccccc2Cl)C1
68 | 95 to 96 °C | CN1CCC(Oc2ccccn2)(c2ccccc2)CC1
69 | 128 to 130 °C | CC(=O)c1ccc(-c2cnco2)cc1
70 | 74 to 75 °C | O=[N+]([O-])c1cc(Cl)cc(CO)c1
71 | 128 to 132 °C | CNC(=S)C1(c2cccc([N+](=O)[O-])c2)CCCCC1=O (stereo unspecified)
72 | 310 to 312 °C | O=c1c2ccccc2nc2n1CCc1c-2[nH]c2ccc(Cl)cc12
73 | 73 to 75 °C | CCCCCCCCC(SCCCC)C(=O)Nc1cccc2cnccc12 (stereo unspecified)
74 | 136 to 137 °C | CC(=O)n1cc(C#N)c(-c2cccc(Cl)c2Cl)c1
75 | 167 to 168 °C | Cc1[nH]c2ccc(CCN3CCN(C)CC3)cc2c1C(=O)OCc1ccccc1
76 | 100 to 101 °C | C#Cc1ccc(OC)c(C#N)c1
77 | 75 to 77 °C | CC(=O)OCc1c(C)cc(C)c(NC(=O)c2sccc2S(=O)(=O)Nc2onc(C)c2C)c1C
78 | 243 to 244 °C | O=c1[nH][nH]c(=O)c2c(O)c3ccc(I)cc3nc12
79 | 60 °C | COc1ccc(OC[C@@H](O)CNCCc2ccc(NC3SC(=O)NC3=O)cc2)cc1 (stereo partly specified)

Row | melting point | SMILES
80 | 130 °C | CCCCCCCC(=O)N(C)Cc1cccc(-c2ccc(CC3SC(=O)NC3=O)cc2C)c1 (stereo unspecified)
81 | 102 °C | N#CC1(CC(=O)O)CCCCC1
82 | 75 °C | O=C(c1ccc(F)cc1)N1CCC[C@H](c2noc(Cc3ccccc3)n2)C1
83 | 135 °C | O=S(=O)(c1cccs1)N(CC1CC1)c1cccc2cc(-c3ncc(CCl)s3)[nH]c12
84 | 167 to 169 °C | Cc1cc(C)nc(OC(C(=O)O)C(C)(C)C)n1 (stereo unspecified)
85 | 73 to 75 °C | COCOc1ccc(C=C2CCCC(=Cc3ccc(OCOC)c(OC)c3)C2=O)cc1OC
86 | 96 to 98 °C | Cc1ccccc1CN(CC(=O)OC(C)(C)C)S(=O)(=O)c1ccc2c(Cl)cnc(Cl)c2c1
87 | 131 to 134 °C | COc1ccc(CNn2c(=O)ccc3ccc(N4CCC[C@H]4CO)nc32)cc1Cl
88 | 75 to 77 °C | Cc1cc(OC2CCCC2)ccc1NC(=O)OC(C)(C)C
89 | 176 to 180 °C | COc1ccccc1Oc1c(Cl)nc(-c2cccc(OCc3ccccc3)c2)nc1NS(=O)(=O)c1ccc(C)cn1
90 | 133 to 134 °C | O=C(O)CCc1cn(Cc2ccc(OCc3csc(-c4ccccc4)n3)cc2)nc1-c1cccs1
91 | 136 to 138 °C | Cc1ccccc1Cc1ccc(C(=O)O)o1
92 | 70 to 71 °C | CCOC(=O)N1CCC(SC(c2ccccc2)c2ccccc2)CC1
93 | 190 to 192 °C | CCCCNC(=O)Nc1ccc(OCC2CC2)cc1C(=O)NCC1CCN(C(c2ccccc2)c2ccccc2)CC1
94 | 247 to 248 °C | NC(=O)COc1ccc(C(=O)CN2CCN(c3ccncc3)CC2)cc1
95 | 145 °C | CC(C)(C)OC(=O)n1[nH]c(=O)c2ccccc21
96 | 105 °C | Cc1cccc(C2(Cn3cncn3)OCCO2)c1
97 | 71 to 72 °C | CCCCCCCCCCCCCCCCCCNC(=O)OCC(COC)CN(C(C)=O)S(=O)(=O)CCCI (stereo unspecified)
98 | 94 to 96 °C | COCCOC(=O)NCC(C)(C)N
99 | 25 to 28 °C | CC(C)=CCCC(C)=CCCC(C)=CCCC1(C)CCc2c(C)c(O)c(C)c(C)c2O1 (stereo unspecified)
100 | 163 to 164 °C | O=C(/C=C/c1cccnc1)NCCc1cccc(O)c1
101 | 141 to 143 °C | COc1cccc2c(Nc3ccccc3C)nc(N(C)C)nc12
